Patent US12686664B2, “SOCE inhibitors and therapeutic uses thereof” (Institut National de la Santé et de la Recherche Médicale …, priority 2020, dated 2026)
Values joined by “and” are separate entries in the source; they are usually repeats but may differ in a detail not shown here. Equal values may be shown once.

Columns and labels:
Type in all cases: cell-based
JOK cells [1] = experiment: JOK cell viability and apoptosis assays (LIVE/DEAD, Annexin V-FITC/PI); conditions: JOK B cells (FIG. 7); 5 or 20 μM; treated for 48 hours
Procedure: Cell Viability Assays. JOK cells were treated with test compounds (GSK-7975-A, SKF-93365 and 6αa) or solvent for 48 hours. JOK cells viability was then assessed using LIVE/DEAD cell viability assays kit (Abcam). Differentially labeled live and dead cells with fluorescent dyes are analyzed by flow cytometry.
Apoptosis Assay. Apoptosis of JOK cells were determined by Annexin V-FITC/PI staining (Biolegend) using flow cytometry. The percentage of annexin V-FITC and propidium iodide-[…] cells were assessed using Kaluza 1.3.

HUVEC cells = experiment: HUVEC cell death (Annexin/Propidium Iodide, flow cytometry); conditions: HUVEC (FIG. 8); 5 or 20 μM; treated for 48 hours
Procedure: FIG. 8. In vitro Effects of 6αa, GSK-7975-A and SKF-93365 on HUVEC Cell Death. […] Cell death was analyzed by flow cytometry following Annexin/Propidium Iodide labeling. Percentages of living cells, necrotic cells and apoptotic cells submitted to GSK-7975A (A), SKF-93365 (B), and 6αa (DAD 3-473) (C) treatment were normalized to the DMSO treatment conditions. Histograms present the amounts of apoptotic cells (annexin/PI positive cells) detected in each experimental condition after treatment with GSK-7975A (D), SKF-93365 (E), and 6αa (DAD 3-473) (F). Data are expressed as mean±SEM of n observations (n=2). Data are analyzed with non parametric Mann Withney analysis, *P<0.05, **P<0.01 and ***P<0.001.

[2] = tested on: store-operated Ca^2+ entry in HEK 293; experiment: Store-operated Ca2+ entry in HEK 293 cell line; conditions: for Effect on amplitude of SOCE peak: % of inhibition (−) or activation
Procedure: (§1) The effects of the molecules developed were tested on PLP-B lymphocytes. Store-operated Ca^2+ entry was induced by depletion of Endoplasmic Reticulum Ca^2+ stores (ER Ca^2+ stores) with thapsigargin (Tg) in a Ca^2+-free medium and measured following the addition of 1.8 mM of CaCl2) in the extracellular medium. The results are compared to the results obtained for known SOCE inhibitors SKF-96365, GSK-7975A, Synta 66.
(§2) Then, effects of the molecule that gave the best results in this test (i.e., molecule 6αa) were assessed in two cancer cell lines, namely: HEK 293 and HEK 651 HS1 tumor cell lines.

PANC-1 cells = experiment: PANC-1 cytotoxicity (Cell Tox green assay); conditions: 5 and 20 μM, 24 hours
Procedure: Analysis of Cell Proliferation. For PANC-1 cell proliferation and cell cytotoxicity measurements, […] were seeded in 96 well-plates in 100 μL of DMEM medium. Cells were incubated for 24 hours at 37° C. with 3 different SOCE inhibitors (GSK-7975-A, SKF-93365 and 6αa) at 2 different concentrations (5 and 20 μM) compared to DMSO and untreated cells. Cell proliferation was evaluated using the Cell Titer kit proliferation assay (Promega). Cytotoxicity was evaluated using the Cell Tox green cytotoxicity assay (Promega). All the kits were used following manufacturer recommendations and using a plate reader.

[3] = tested on: store-operated Ca^2+ entry in PLP-B lymphocytes; experiment: Store-operated Ca2+ entry after thapsigargin depletion of ER Ca2+ stores in PLP-B lymphocytes; conditions: for Effect on amplitude of SOCE peak: PLP-B lymphocytes, % of inhibition (−) or activation, DMSO control 100%
Procedure: as §1

SOCE in JOK B cells = experiment: Intracellular calcium levels / SOCE in JOK B cells (Fura-2AM, FlexStation 3)
Procedure: Intracellular calcium levels were monitored at 37° C. using the FlexStation 3™ (Molecular Devices, Berkshire, UK), a fluorescence plate reader measuring time-resolved intracellular Ca^2+ concentration in a 96-well format with cells loaded with the dual-wavelength fluorescent calcium-sensitive dye Fura-2AM.
Intracellular Ca^2+ stores were depleted with 2 μM Thapsigargin (an inhibitor of ER SERCA pumps) under Ca^2+-free conditions to determine the magnitude of intracellular Ca^2+ release. Next, the cells were returned to Ca^2+-containing Hepes-buffered solution to measure SOCE. The magnitude of SOCE was estimated as the maximal values of normalized fluorescence ratio following Ca^2+ re-addition.

JOK cells [4] = experiment: Migration of JOK cells through HUVEC in transwells; conditions: 5 or 20 μM
Procedure: Migration Protocol. Migration chambers (transwells) (Transwell 5.0 m polycarbonate membrane Costar) were coated overnight (37° C., 5% CO2) with 100 μL of fibronectine solution containing BSA (1 mg/ml) and LHC Basal Medium. Primary HUmbilical Vein Endothelial Cells (HUVEC) were seeded in each transwell (100 000/well) and cultured for 24 hours (37° C., 5% CO2). To evaluate B cell migration, JOK cells were added (300 000/well) to each transwell upper chamber containing RPMI 1640 medium (BioWest) containing 0.5% BSA and SDF1 (200 ng/ml) was added in the bottom chamber. Cells were cultures in the presence or absence of a test compound (GSK-7975-A, SKF-93365 and 6αa) or solvent. After 24 hours (37° C., 5% CO2), migrated cells were collected in the bottom chambers and counted by flow cytometry. The percentages of migration were calculated for each experimental collection.

[5] = tested on: store-operated Ca^2+ entry in HEK 651 HS1; experiment: Store-operated Ca2+ entry in HEK 651 HS1 cell line; conditions: for Effect on amplitude of SOCE peak: % of inhibition (−) or activation
Procedure: as §1, §2

[6] = average of three assays, ±0.5 μM

O=C(Nc1ccn(Cc2ccc(O)cc2C(F)(F)F)n1)c1c(F)cccc1F [GSK-7975A]
apoptosis or necrosis of cells (JOK cells [1]): do not induce apoptosis or necrosis | apoptosis or necrosis of cells (HUVEC cells): do not induce apoptosis or necrosis | Effect on amplitude of SOCE peak ([2]; 0.1 μM): −7% | Effect on amplitude of SOCE peak ([2]; 1 μM): −31% | Effect on amplitude of SOCE peak ([2]; 5 μM): −66% | Effect on amplitude of SOCE peak ([2]; 10 μM): −75% | Effect on amplitude of SOCE peak ([2]; 50 μM): −87% | IC50 [2, 6]: 2000 nM | cytotoxicity in cancer PANC-1 cells (PANC-1 cells): no cytotoxic effects | Effect on amplitude of SOCE peak ([3]; 1 μM): 19.0% and 9.0% | Effect on amplitude of SOCE peak ([3]; 10 μM): −9.0% | Effect on amplitude of SOCE peak ([3]; 50 μM): −88.0% | Effect on amplitude of SOCE peak ([3]; 100 μM): −94.0% | IC50 ([3]; SOCE in PLP-B lymphocytes, average of three assays, ±0.5 μM): 2300 nM | amplitude of Ca2+ release from the endoplasmic stores (SOCE in JOK B cells): not found to be significantly affected | amplitude of SOCE (SOCE in JOK B cells; 5 and 20 μM, compared to control, irrespective of incubation time (5, 15, 30 minutes, 1 hour)): significantly reduces | transendothelial migration through HUVEC of JOK cells (JOK cells [4]): does not | Effect on amplitude of SOCE peak ([5]; 0.1 μM): 0% | Effect on amplitude of SOCE peak ([5]; 1 μM): −2% | Effect on amplitude of SOCE peak ([5]; 5 μM): −19% | Effect on amplitude of SOCE peak ([5]; 10 μM): −22% | Effect on amplitude of SOCE peak ([5]; 50 μM): −72% | IC50 [5, 6]: 44000 nM
